The target in assay [1] is T1, Transitional endoplasmic reticulum ATPase (Homo sapiens, UniProt P55072). In words: Binding affinity to GST-tagged p97 (unknown origin) by CD spectroscopy.
In assay [2] the target is T1, Transitional endoplasmic reticulum ATPase. In words: Inhibition of p97 (unknown origin) by malachite green assay.
Assay [3] concerns the target T2, Vacuolar protein sorting-associated protein 4B (Homo sapiens, UniProt O75351).
T2 sequence (O75351 whole entry): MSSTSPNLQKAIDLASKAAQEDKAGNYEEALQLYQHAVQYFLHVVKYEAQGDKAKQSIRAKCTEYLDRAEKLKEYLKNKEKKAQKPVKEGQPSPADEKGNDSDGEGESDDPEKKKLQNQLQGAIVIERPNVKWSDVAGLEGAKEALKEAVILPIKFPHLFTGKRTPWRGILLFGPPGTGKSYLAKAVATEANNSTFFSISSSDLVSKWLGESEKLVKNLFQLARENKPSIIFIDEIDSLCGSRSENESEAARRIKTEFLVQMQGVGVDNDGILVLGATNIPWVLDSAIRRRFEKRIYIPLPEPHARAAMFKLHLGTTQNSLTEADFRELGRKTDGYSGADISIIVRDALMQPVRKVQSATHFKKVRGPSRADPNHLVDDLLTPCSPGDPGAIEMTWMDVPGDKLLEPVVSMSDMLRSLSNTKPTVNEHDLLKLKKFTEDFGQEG
In words: Inhibition of VPS4B (unknown origin) assessed as reduction in ATPase activity in presence of activating fragment of substrate CHMP1B.

The target in assay [4] is T2, Vacuolar protein sorting-associated protein 4B. Briefly: Inhibition of VPS4B (unknown origin) by malachite green assay.
The species entered for another assay is Homo sapiens. Briefly: Selectivity ratio of IC50 for inhibition of p97 (unknown origin) by malachite green assay to IC50 for inhibition of VPS4B (unknown origin) by malachite green assay.
Assay [5] concerns the target T1, Transitional endoplasmic reticulum ATPase. Briefly: Inhibition of p97 (unknown origin) by ADP-Glo assay. (In general: ADP-Glo first removes unused ATP, then detects ADP through luciferase.)
Assay [6] shares this target. Briefly: Inhibition of GST-fused VCP (unknown origin) expressed in Escherichia coli BL21 star (DE3) pre-incubated for 60 mins before ATP addition and measured after 60 mins by kinase Glo-Plus reagent based assay. On the technique in general: In Kinase-Glo more light means more ATP remaining.
The subject of a further assay is Human betaherpesvirus 5. In words: Antiviral activity against Human Cytomegalovirus. Format: functional, organism-based.
Assay [7] addresses T1, Transitional endoplasmic reticulum ATPase. In words: Inhibition of p97 (unknown origin) assessed as reduction in ATPase activity.
A further assay concerns HCT-116. In words: Antiproliferative activity against human HCT116 cells. It is filed as functional, cell-based.
For assay [8], the target named is T1, Transitional endoplasmic reticulum ATPase. Briefly: Inhibition of p97 (unknown origin) expressed in Escherichia coli BL21 (DE3) pre-incubated for 10 mins before ATP addition and measured up to 120 mins measured by malachite green assay.
Assay [9] addresses ATP-dependent clpX-like chaperone, mitochondrial (Homo sapiens, UniProt O76031). In words: Inhibition of ClpX (unknown origin) expressed in Escherichia coli BL21 (DE3) pre-incubated for 10 mins before ATP addition and measured up to 120 mins measured by malachite green assay.
Assay [10] deals with T1, Transitional endoplasmic reticulum ATPase. In words: Inhibition of p97 in human HeLa cells assessed as reduction in p97-dependent UbG76V-GFP degradation incubated for 1 hr by […] reporter gene assay. Format: cell-based. On the technique in general: Reporter assays use an easily measured gene product as a stand-in for the process of interest.
Assay [11] shares this target. In words: Binding affinity to p97 (unknown origin) by SPR assay.
In the next assay the test system is JeKo-1. Briefly: Growth inhibition of human JeKo1 cells assessed as reduction in cell viability by MTT assay. Format: functional, cell-based.
The target of assay [12] is T1, Transitional endoplasmic reticulum ATPase. Briefly: Inhibition of human p97.
Assay [13] concerns Panel NCI-60 (60 carcinoma cell lines). Briefly: Growth inhibition of human NCI60 cells. Format: functional, cell-based.
Assay [14] deals with T1, Transitional endoplasmic reticulum ATPase. Briefly: Inhibition of p97 in HEK293 cells co-expressing GFP and hemagglutinin assessed as reduction in p97-dependent ERAD pathway by immunoblotting analysis. It is filed as cell-based.

We go through 16 molecules from ChEMBL document CHEMBL4354809, “p97: An Emerging Target for Cancer, Neurodegenerative Diseases, and Viral Infections” (J Med Chem, 2020).

T1 sequence (P55072 whole entry): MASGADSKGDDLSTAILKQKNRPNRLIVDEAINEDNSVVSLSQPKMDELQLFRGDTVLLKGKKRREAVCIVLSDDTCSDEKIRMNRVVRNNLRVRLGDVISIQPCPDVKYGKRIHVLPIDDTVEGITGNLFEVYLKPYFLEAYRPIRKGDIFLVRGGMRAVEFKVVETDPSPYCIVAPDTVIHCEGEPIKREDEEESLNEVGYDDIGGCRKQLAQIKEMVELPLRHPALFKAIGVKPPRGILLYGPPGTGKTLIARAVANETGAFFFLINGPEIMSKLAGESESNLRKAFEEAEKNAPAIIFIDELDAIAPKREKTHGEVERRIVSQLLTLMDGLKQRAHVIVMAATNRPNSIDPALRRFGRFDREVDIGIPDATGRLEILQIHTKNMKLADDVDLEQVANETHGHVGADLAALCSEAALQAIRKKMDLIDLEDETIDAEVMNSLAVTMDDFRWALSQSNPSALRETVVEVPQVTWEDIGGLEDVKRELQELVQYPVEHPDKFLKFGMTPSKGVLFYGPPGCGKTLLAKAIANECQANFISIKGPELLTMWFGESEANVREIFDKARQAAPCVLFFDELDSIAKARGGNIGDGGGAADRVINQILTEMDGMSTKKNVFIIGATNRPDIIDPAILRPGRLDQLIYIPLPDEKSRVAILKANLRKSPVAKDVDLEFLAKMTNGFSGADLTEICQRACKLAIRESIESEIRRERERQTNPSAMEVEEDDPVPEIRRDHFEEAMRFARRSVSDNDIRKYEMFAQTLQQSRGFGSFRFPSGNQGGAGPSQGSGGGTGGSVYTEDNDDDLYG
Sequence of ATP-dependent clpX-like chaperone, mitochondrial (O76031 whole entry): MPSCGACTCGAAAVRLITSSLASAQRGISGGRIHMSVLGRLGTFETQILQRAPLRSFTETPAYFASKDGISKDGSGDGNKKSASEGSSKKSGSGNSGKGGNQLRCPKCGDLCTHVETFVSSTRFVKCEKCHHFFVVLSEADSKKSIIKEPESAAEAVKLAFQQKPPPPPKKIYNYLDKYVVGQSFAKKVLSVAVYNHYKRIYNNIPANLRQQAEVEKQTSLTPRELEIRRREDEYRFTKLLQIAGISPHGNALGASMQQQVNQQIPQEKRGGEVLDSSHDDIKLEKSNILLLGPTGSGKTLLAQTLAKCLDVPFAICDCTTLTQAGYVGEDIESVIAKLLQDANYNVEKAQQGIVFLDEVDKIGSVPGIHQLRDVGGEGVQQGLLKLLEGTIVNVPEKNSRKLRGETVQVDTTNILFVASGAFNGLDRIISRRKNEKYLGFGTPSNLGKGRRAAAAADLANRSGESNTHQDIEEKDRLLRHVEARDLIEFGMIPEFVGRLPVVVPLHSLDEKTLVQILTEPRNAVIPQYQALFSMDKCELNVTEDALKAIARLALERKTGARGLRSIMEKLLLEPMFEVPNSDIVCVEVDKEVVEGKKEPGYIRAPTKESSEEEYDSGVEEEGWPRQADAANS

Consider `O=C(/C=C1\Nc2ccccc2C(=O)N2CCC[C@@H]12)/C=C/c1c[nH]c2ccc(I)cc12`, for which the Kd (as a rule, the free concentration of one partner at which half of the binding sites on the other are occupied at equilibrium, for simple one-to-one binding) in assay [1] is 7000 nM.

For `Fc1ccc(C(CCCNCC2CCc3[nH]c4ccc(F)cc4c3C2)c2ccc(F)cc2)cc1` (stereo not drawn), the IC50 (commonly the concentration that inhibits the measured activity by half) came out at 7200 nM in [2], 710 nM in [3] and 710 nM in assay [4]. Besides, the Ratio IC50 in the assay filed under Homo sapiens was 10.

`CC(C)N1CCN(CCNC2CCN(c3cccc(-c4cc5cc(C#N)ccc5[nH]4)c3)CC2)CC1` displayed an IC50 in assay [5] of 44 nM.

As to `COc1ccc(C(=O)c2oc3ccccc3c2NC(C)=O)cc1`, the IC50 in assay [6] was above 100000 nM.

In the case of `Cc1cc(OCc2nnc(SC3CCCC3)n2-c2cccnc2)ccc1-c1ccc(S(C)(=O)=O)cc1`, it took 130 nM to reach half-maximal inhibition with Human betaherpesvirus 5 (IC50).

As for `[N-]=[N+]=Nc1cccc(-n2c(COc3ccc(CCCO)cc3)nnc2SC2CCCC2)c1`, in assay [7], the IC50 was determined as 1100 nM.

In the assay with HCT-116, `O=C(CCl)Nc1cccc(NC2=NS(=O)(=O)c3ccccc32)c1` showed a 50% inhibitory concentration (IC50) of 3000 nM.

`CC(=O)OCC1=C(C)C[C@H]([C@@H](C)[C@H]2CC[C@H]3[C@@H]4C[C@H]5O[C@]56[C@@H](O)C=CC(=O)[C@]6(C)[C@H]4CC[C@]23C)OC1=O`: the values for the IC50 in [8] and in [9] were 22000 nM and 9500 nM, respectively.

On to `CC(C)N1CCN(CCNC2CCN(c3cccc(-c4cc5cc(C(F)(F)F)ccc5[nH]4)c3)CC2)CC1`, for which, in [5], the IC50 amounted to 4600 nM.

Turning to `CC(C)N1CCN(CCNC2CCN(c3cccc(-c4cc5cc(C(=O)N(C)C)ccc5[nH]4)c3)CC2)CC1`, in assay [5], 31400 nM corresponded to half-maximal inhibition (IC50).

`Clc1ccccc1C(c1ccccc1)(c1ccccc1)n1ccnc1` [CLOTRIMAZOLE]: the IC50 in assay [10] worked out at 1400 nM.

On to `CC1(C)C(N(O)C(=O)Nc2ccc(Cl)cc2)N(c2ccc(Cl)cc2)C(=O)N1CC(=O)N/N=C/C=C/c1ccc([N+](=O)[O-])o1` (stereo not drawn), for which the Kd in [11] lay within 5000 to 10000 nM. The IC50 with JeKo-1 came to 4000 nM.

`CC(C)N1CCN(CCNC2CCN(c3cccc(-c4cc5cc(F)ccc5[nH]4)c3)CC2)CC1`: the values for the IC50 in assay [12] and in assay [13] were 20 to 70 nM and 316 to 2000 nM, respectively.

In the case of `C[C@H]1CCC/C=C/C(=O)c2c(O)c(Cl)c(O)c(Cl)c2CC(=O)O1`, the IC50 was determined as 15300 nM in assay [8] and 7900 nM in assay [14].

Consider `[N-]=[N+]=Nc1cccc(OCc2nnc(SC3CCCC3)n2-c2cccnc2)c1`, for which, in assay [7], the 50% inhibitory concentration (IC50) is 760 nM.

With `Nc1nc2c(ncn2COC(CO)CO)c(=O)[nH]1` [GANCICLOVIR], in the assay with Human betaherpesvirus 5, the half-maximal inhibitory concentration (IC50) is 1300 nM.
